Test results taken from patent US20250177532A1, “TEMPERATURE-SENSITIVE HYDROGEL FOR CANCER TREATMENT CAPABLE OF PHOTOTHERMAL THERAPY AND PREPARATION METHOD THEREFOR” (KOREA NATIONAL UNIVERSITY OF TRANSPORTATION …, priority 2022, published 2025).

Test system: 4T1 cells
Assay: Photothermal effect in vitro: cell viability by WST-1 assay with/without near-infrared irradiation
Settings: Triton X 0.1%
Procedure: To evaluate photothermal effect in in vitro, cells were seeded (1×10^4 cells/well) in 96 well-plate and incubated for 12 h. […] Then, the well was irradiated with near-infrared light for 5 min and incubated again for 24 hours. Then, cell viability was measured using WST-1 assay.

Substance: Triton X
- Cell viability (%) (control of Table 1 (GNS experiment, near-infrared irradiation)): 5.02%
- Cell viability (%) (control of Table 2, NIR irradiated): 10.58%
- Cell viability (%) (control of Table 2, no NIR): 10.23%
